In patent US20110152086A1, “Herbicidal Compositions Comprising Flufenacet” (BAYER CROPSCIENCE AG, priority 2009, published 2011):
Read-outs that look alike come from different tables or passages of the source.

Assays:
LOLSS = test: Greenhouse trial, PE application on sensitive and resistant biotypes (Table 5); assay type: in vivo, Lolium species; details: for activity, LOLSS resistant: resistant biotype; for activity, LOLSS resistant / activity, LOLSS Sensitive: (A) 90, (B) 1200, iodosulfuron 10 g of AS/ha; for activity, LOLSS Sensitive: sensitive biotype
Description: (§1) In the standard design of the test, seeds of various broad-leaved weed and weed grass biotypes (origins) were sown in a 8-13 cm diameter pot filled with natural soil of a standard field soil (loamy silt; non-sterile) and covered with a covering soil layer of about 1 cm. The pots were then cultivated in a greenhouse (12-16 h of light, temperature day 20-22° C., night 15-18° C.) until the time of application. The pots were treated on a laboratory track sprayer with spray liquors comprising the compositions according to the invention, mixtures of the prior art or components used individually. Application of the active compounds or active compound combinations formulated as WG, WP, EC or otherwise was carried out at the appropriate growth stages of the plants. The application rate for the spray application was 100-600 l of water/ha. After the treatment, the plants were returned to the greenhouses.
(§2) About 3 weeks after the application, the soil action or/and foliar action was assessed visually according to a scale of 0-100% in comparison to an untreated comparative group: 0%=no noticeable effect compared to the untreated comparative group; 100%=full effect compared to the untreated comparative group.
(§3) (notes: the term “seeds” also includes vegetative propagation forms such as, for example, rhizome pieces; abbreviations used: h light=hours of illumination, g of AS/ha=gram of active substance per hectare, l/ha=liter per hectare, S=sensitive, R=resistant) • 1. Pre-emergence action against weeds: seeds of various broad-leaved weed and weed grass biotypes (origins) were sown in a 8-13 cm diameter pot filled with natural soil of a standard field soil (loamy silt; non-sterile) and covered with a covering soil layer of about 1 cm. The pots were then cultivated in a greenhouse (12-16 h of light, temperature day 20-22° C., night 15-18° C.) until the time of application. The pots were treated at the BBCH stage 00-10 of the seeds/plants on a laboratory track sprayer with spray liquors comprising the compositions according to the invention, mixtures or components used individually, as WG, WP, EC or other formulations. The application rate for the spray application was 100-600 l of water/ha. After the treatment, the plants were returned to the greenhouses and, when required, treated with fertilizer and watered. • 2. Post-emergence action against weeds: seeds of various broad-leaved weed and weed grass biotypes (origins) were sown in a 8-13 cm diameter pot filled with natural soil of a standard field soil (loamy silt; non-sterile) and covered with a covering soil layer of about 1 cm. The pots were then cultivated in a greenhouse (12-16 h of light, temperature day 20-22° C., night 15-18° C.) until the time of application. The pots were treated at various BBCH stages between 11-25 of the seeds/plants, i.e. generally between two to three weeks after the start of the cultivation, on a laboratory track sprayer with spray liquors comprising the compositions according to the invention, mixtures or components used individually, as WG, WP, EC or other formulations. The application rate for the spray application was 100-600 l of water/ha. After the treatment, the plants were returned to the greenhouses and, when required, treated with fertilizer and watered. • 3. Pre-emergence action against weeds with and without incorporation of active compound: seeds of various broad-leaved weed and weed grass biotypes (origins) were sown in a 8-13 cm diameter pot filled with natural soil of a standard field soil (loamy silt; non-sterile). […]

PAPRH = test: as above; assay type: in vivo; details: for activity, PAPRH resistant: resistant biotype; for activity, PAPRH resistant / activity, PAPRH Sensitive: (A) 90, (B) 1200, iodosulfuron 10 g of AS/ha; for activity, PAPRH Sensitive: sensitive biotype
Description: as §1, §2, §3

VIOAR [1] = test: Greenhouse trial, PE soil application vs incorporation into the soil (Table 1a); assay type: in vivo, Viola arvensis; details: (A) 90, (B) 1200 g of AS/ha
Description: as §1, §2
(§4) (notes: the term “seeds” also includes vegetative propagation forms such as, for example, rhizome pieces; abbreviations used: h light=hours of illumination, g of AS/ha=gram of active substance per hectare, l/ha=liter per hectare, S=sensitive, R=resistant) • 1. Pre-emergence action against weeds: seeds of various broad-leaved weed and weed grass biotypes (origins) were sown in a 8-13 cm diameter pot filled with natural soil of a standard field soil (loamy silt; non-sterile) and covered with a covering soil layer of about 1 cm. The pots were then cultivated in a greenhouse (12-16 h of light, temperature day 20-22° C., night 15-18° C.) until the time of application. The pots were treated at the BBCH stage 00-10 of the seeds/plants on a laboratory track sprayer with spray liquors comprising the compositions according to the invention, mixtures or components used individually, as WG, WP, EC or other formulations. The application rate for the spray application was 100-600 l of water/ha. After the treatment, the plants were returned to the greenhouses and, when required, treated with fertilizer and watered. • 2. Post-emergence action against weeds: seeds of various broad-leaved weed and weed grass biotypes (origins) were sown in a 8-13 cm diameter pot filled with natural soil of a standard field soil (loamy silt; non-sterile) and covered with a covering soil layer of about 1 cm. The pots were then cultivated in a greenhouse (12-16 h of light, temperature day 20-22° C., night 15-18° C.) until the time of application. […]

VIOAR [2] = test: Greenhouse trial, PO application (Table 2); assay type: in vivo, Viola arvensis; details: (A) 120, (B) 1600 g of AS/ha
Description: as §1
as §2, with “group. […]” for “group.”

STEME [3] = test: Greenhouse trial, PO application (Table 2); assay type: in vivo, Stellaria media; details: (A) 120, (B) 1600 g of AS/ha
Description: as §1
as §2, with “group. […]” for “group.”

LOLPE [4] = test: Greenhouse trial, PO application (Table 2); assay type: in vivo, Lolium perenne; details: (A) 120, (B) 1600 g of AS/ha
Description: as §1
as §2, with “group. […]” for “group.”

HORVS = test: Greenhouse trial, selective PO application (Table 2); details: Hordeum vulgare (summer barley), in vivo
Description: as §1
as §2, with “group. […]” for “group.”

LOLPE [5] = test: Greenhouse trial, PE application vs application 7 days prior to sowing (Table 3); assay type: in vivo, Lolium perenne; details: (A) 90, (B) 1200 g of AS/ha
Description: as §1, §2, §4

AVEFA = test: as above; assay type: in vivo, Avena fatua; details: (A) 90, (B) 1200 g of AS/ha
Description: as §1, §2, §4

POOAN = test: as above; assay type: in vivo, Poa annua; details: (A) 90, (B) 1200 g of AS/ha
Description: as §1, §2, §4

TRZAW = test: Greenhouse trial, PE application, crop (Table 3); details: Triticum aestivum (winter wheat), in vivo
Description: as §1
as §2, with “group. […]” for “group.”

TRZAS [6] = test: Greenhouse trial, application 7 days prior to sowing, crop (Table 3); details: Triticum aestivum (summer wheat), in vivo
Description: as §1
as §2, with “group. […]” for “group.”

LOLPE [7] = test: Greenhouse trial, PE application with different soil types (Table 4); assay type: in vivo, Lolium perenne; details: (A) 120, (B) 1200 g of AS/ha
Description: as §1, §2, §3

TRZAS [8] = test: Greenhouse trial, PE application with different soil types, crop (Table 4); details: Triticum aestivum (summer wheat), in vivo
Description: as §1, §2, §3

STEME [9] = test: Greenhouse trial, different sowing depths (Table 6); assay type: in vivo, Stellaria media; details: PE application, (A) 90, (B) 1200 g of AS/ha; for activity, STEME 5 mm: sowing depth 5 mm; for activity, STEME 20 mm: sowing depth 20 mm
Description: as §1, §2, §4

APESV = test: as above; assay type: in vivo; details: PE application, (A) 90, (B) 1200 g of AS/ha; for activity, APESV 5 mm: sowing depth 5 mm; for activity, APESV 20 mm: sowing depth 20 mm
Description: as §1, §2, §4

MATCH = test: as above; assay type: in vivo, Matricaria chamomilla; details: head prints PO application, (A) 90, (B) 1200 g of AS/ha; for activity, MATCH 5 mm: sowing depth 5 mm; for activity, MATCH 20 mm: sowing depth 20 mm
Description: as §1, §2, §4

VIOAR [10] = test: as above; assay type: in vivo, Viola arvensis; details: head prints PO application, (A) 90, (B) 1200 g of AS/ha; for activity, VIOAR 5 mm: sowing depth 5 mm; for activity, VIOAR 20 mm: sowing depth 20 mm
Description: as §1, §2, §4

[11] = Application 7 days prior to sowing

SMILES | Difference resistant to sensitive Δ^D, LOLSS (LOLSS) | activity, LOLSS resistant (LOLSS) [%] | activity, LOLSS Sensitive (LOLSS) [%] | Difference resistant to sensitive Δ^D, PAPRH (PAPRH) | activity, PAPRH resistant (PAPRH) [%] | activity, PAPRH Sensitive (PAPRH) [%] | activity, VIOAR (VIOAR [1]; Incorporation) [%] | activity, VIOAR (VIOAR [1]; PE application) [%] | activity, VIOAR (VIOAR [2]) [%] | activity, STEME (STEME [3]) [%] | activity, LOLPE (LOLPE [4]) [%] | activity, HORVS (HORVS) [%] | activity, LOLPE (LOLPE [5]; [11]) [%] | activity, LOLPE (LOLPE [5]; PE application) [%] | activity, AVEFA (AVEFA; [11]) [%] | activity, AVEFA (AVEFA; PE application) [%] | activity, POOAN (POOAN; [11]) [%] | activity, POOAN (POOAN; PE application) [%] | activity, TRZAW (TRZAW) [%] | activity, TRZAS (TRZAS [6]) [%] | also measured
COc1nc(C)nc(NC(=O)NS(=O)(=O)c2cc(I)ccc2C(=O)O)n1 [(C)^1 iodosulfuron] | Δ^D −48% | 50 | 98 | Δ^D −40% | 70 | 100 | – | – | – | – | – | – | – | – | – | – | – | – | – | – | Difference resistant to sensitive Δ^D, LOLSS (LOLSS; listed as standard product (C)): −48%
CC(C)N(C(=O)COc1nnc(C(F)(F)F)s1)c1ccc(F)cc1 [(A) flufenacet, N-(4-fluorophenyl)-N-(1-methylethyl)-2-[[5-(trifluoromethyl)-1,3,4-thiadiazol-2-yl]oxy]acetamide] | Δ^D −75% | 10 | 85 | Δ^D −15% | 45 | 60 | 0 | 0 | 40 | 30 | 65 | 40 | 80 | 90 | 70 | 80 | 95 | 65 | 30 | 60 | Difference of the soil types Δ^D = A: activity IU/EC73 soil − B: activity IU soil, LOLPE (LOLPE [7]): Δ^D −22%; activity, LOLPE IU soil (LOLPE [7]): 97%; activity, LOLPE IU/EC73 soil (LOLPE [7]): 75%; Difference of the soil types Δ^D = A: activity IU/EC73 soil − B: activity IU soil, TRZAS (TRZAS [8]): Δ^D −33%; activity, TRZAS IU soil (TRZAS [8]): 33%; activity, TRZAS IU/EC73 soil (TRZAS [8]): 0%; activity, STEME 5 mm (STEME [9]): 0%; activity, STEME 20 mm (STEME [9]): 10%; activity, APESV 5 mm (APESV): 65%; activity, APESV 20 mm (APESV): 70%; activity, MATCH 5 mm (MATCH): 30%; activity, MATCH 20 mm (MATCH): 30%; activity, VIOAR 5 mm (VIOAR [10]): 50%; activity, VIOAR 20 mm (VIOAR [10]): 10%
CCCN(CCC)C(=O)SCc1ccccc1 [(B) prosulfocarb, S-(phenylmethyl) dipropylcarbamothioate] | Δ^D −20% | 65 | 85 | Δ^D +20% | 70 | 50 | 0 | 20 | 50 | 30 | 60 | 30 | 0 | 80 | 10 | 80 | 20 | 35 | 35 | 10 | Difference of the soil types Δ^D = A: activity IU/EC73 soil − B: activity IU soil, LOLPE (LOLPE [7]): Δ^D −33%; activity, LOLPE IU soil (LOLPE [7]): 33%; activity, LOLPE IU/EC73 soil (LOLPE [7]): 0%; Difference of the soil types Δ^D = A: activity IU/EC73 soil − B: activity IU soil, TRZAS (TRZAS [8]): Δ^D −5%; activity, TRZAS IU soil (TRZAS [8]): 5%; activity, TRZAS IU/EC73 soil (TRZAS [8]): 0%; activity, STEME 5 mm (STEME [9]): 60%; activity, STEME 20 mm (STEME [9]): 50%; activity, APESV 5 mm (APESV): 50%; activity, APESV 20 mm (APESV): 20%; activity, MATCH 5 mm (MATCH): 0%; activity, MATCH 20 mm (MATCH): 0%; activity, VIOAR 5 mm (VIOAR [10]): 60%; activity, VIOAR 20 mm (VIOAR [10]): 20%
